Data from patent publication US20120309798A1, “Tumour Treatment Agents and Method” (Vivolux AB, priority 2009, published 2012).

Experiments:
MCF-7 tumor cells = test: Mode of cell death: time lapse phase contrast microscopy and multiparametric HCS (Arrayscan II); assay type: cell-based
Method: Multiparametric high content screening assays. To study the cell death characteristics a multi-parametric high content screening (HCS) assay was used (Cellomics cytotoxicity HitKit™) and an HCS assay for measurement of apoptosis, which has been described in detail previously (Lovborg et al., 2004). The cells (1500 cells/well) were seeded into flat-bottomed 96-well plates (Perkin Elmer Inc., Wellesley, Mass.) and were left to attach before addition of drugs. For the cytotoxicity assay the cytotoxicity HitKit™ reagents (Cellomics Inc., Pittsburgh, Pa., USA) was used according to the manufacturer's instructions. Multi-parameter cytotoxicity HitKit™ contains a nuclear dye, a cell permeability dye, and a lysosomal mass/pH indicator. In the apoptosis assay FAM-DEVD-FMK (part of the CaspaTag Kit, Chemicon, Temecula, Calif.) at a final concentration of 20 μM was added one hour before the end of the drug exposure to stain activated caspase-3 and partly caspase-7. The staining solution was removed and the plates were washed twice with PBS followed by a 30 min fixation in 3.7% formaldehyde and nuclear staining with 10 μM Hoechst 33342 (Sigma). Plates were then washed twice. The plates were centrifuged before each aspiration to avoid loss of cells detached due to toxic stimuli. Processed plates were kept at +4° C. for up to 24 h before analysis. Plates were analyzed using the ArrayScan™ HCS software (Cellomics Inc). The system is a computerized automated fluorescence-imaging microscope that automatically identifies stained cells and reports the intensity and distribution of fluorescence in individual cells. Images were acquired for each fluorescence channel, using suitable filters with 20× objective. In each well at least 800 cells were analyzed. Images and data were stored in a Microsoft SQL database.
Phase contrast microscopy. Time lapse phase contrast microscopy was performed using an automated Incucyte phase contrast microscope. MCF-7 cells (10,000/well) were plated on 24-well ImageLock plates (Essen Instruments, Ann Arbor, Mich.) and cultured in RPMI 1640 media containing 10% fetal bovine serum and antibiotics. The plates were immediately placed into IncuCyte imaging system (Essen Instruments). The chamber is designed to fit into a standard, humidified, CO2 incubator in an atmosphere of 5% CO2, and a moving objective allows the cell culture to be stationary while images are captured at different positions from well to well. Images were collected at hourly intervals starting 30 minutes after addition of the plate to the IncuCyte-FLR chamber. Drug treatment was performed 24 hours after the plates were placed in the Incucyte. Cell density was calculated using the Incucyte software. […]

ROS formation = test: ROS formation; details: in contrast to triapine
[1] = system: intracellular free iron in MCF-7 cells; test: Measurement of intracellular iron (Phen Green); assay type: cell-based; details: MCF-7, Phen Green fluorescent probe, 100 μM or 500 μM
Text: Measurement of intracellular iron. The fluorescent membrane permeable Fe sensor, Phen Green (Invitrogen AB, Göteborg, Sweden) was used to measure changes in intracellular free iron concentration. Fluorescence of the PhenGreen indicators is quenched upon binding Fe^2+ and Fe^3+. The emission intensity of the PhenGreen FL indicator depends on both the metal ion's concentration and the indicator's concentration. MCF-7 cells were harvested and diluted to 500,000 per mL in complete medium, loaded with 10 μM PhenGreen diacetate for 45 minutes and plated to flat-bottomed 96W microtiter plates. The plates were washed ×2 with PBS, resuspended in 180 μl PBS per well and subsequently analyzed by a plate reading fluorometer Fluostar Optima which is programmed to scan fluorescence once a minute for 20 minutes with a break after 5 minutes, during which 20 μl PBS, or VLX50 (100 μM or 500 μM) was added.
Mechanism of action. Mechanistic exploration was performed using gene expression analysis of drug treated tumor cell cultures to generate a drug specific signature. The breast cancer cell line MCF-7 was treated with VLX50 or vehicle (DMSO) and analyzed for gene expression using the Affymetrix U1300plus chip. […] This query signature was subsequently submitted to the GSEA and the Connectivity map databases and strong connections to hypoxia inducible factor (HIF1 alfa) and iron chelators were retrieved. […]

MCF-7 cell cultures = test: Effect of extracellular Fe on VLX50 induced cell death; assay type: cell-based; details: MCF-7, extracellular iron added

ROS formation (ROS formation): does not appear to induce ROS formation
SMILES: COCCCNC(=S)N/N=C\c1ccccn1 [VLX50, N1-(3-methoxypropyl)-2-(pyridylmethylidene)-hydrazine-1-carbothioamide]
Caspase-3 activity (MCF-7 tumor cells; MCF-7, 48-72 h): increase
Cell density (MCF-7 tumor cells; MCF-7, 48-72 h): gradual decrease
DNA fragmentation (MCF-7 tumor cells; MCF-7, 48-72 h): increase
Effect on growth and viability (MCF-7 tumor cells; MCF-7, 24 h): little or no effect
Intracellular iron concentration [1]: decrease
VLX50 activity on adding extracellular iron (MCF-7 cell cultures): dose-dependent decrease
